Results from patent US8911953B2, “TDF-related compounds and analogs thereof, analogs and bioactive fragments” (Thrasos Innovation, Inc., priority 2005, dated 2014).
Positions of bridges follow the written chain, without caps; N, C: chain ends. No end group written: not given here.

Assays:
HK-2 cells = assay: Cisplatin-induced apoptosis in HK-2 cells (Annexin V staining); assay type: cell-based, human; settings: 10 uM cisplatin, 500 uM compound, prophylactic or therapeutic
Method: Apoptosis and cell viability are quantified using AnnexinV-FITC and propidium iodide staining of HK-2 cells following cisplatin treatment. Immortalized PTEC-derived HK-2 cells (ATCC number CRL-2190) are cultured in serum-free keratinocyte medium (GIBCO number 17005-042) supplemented with EGF and BPE for 48 hours (Ryan et al. 1994 Kidney Int 45:48-57). Medium is aspirated and cells are washed with PBS and incubated in the dark for 15 min at room temperature with 10 μl of media binding agent and 1.25 μl of FITC conjugated AnnexinV. Propidium iodide (10 μl) is added, and samples are analyzed immediately. Quantification of Annexin V-FITC and propidium iodide signals is performed by fluorescence microscopy (Axiovert 135; Carl Zeiss). Phase contrast images are observed using transmitted light. Apoptotic cells show cytoplasmic staining and viable cells remain unstained (FIG. 17).

[1] = test system: HK-2 (Human Kidney-2) cells; assay: HK-2 cell culture, TNF-alpha induced cytokine and adhesion molecule production (ELISA); assay type: cell-based; settings: proximal tubule cells
Method: Injury of PTEC by TNF-α and cisplatin (an anti-neoplastic agent) results in the induction of apoptosis, as shown by DNA damage, mitochondial disfunction, BAX […] and caspase activation. BMP-7 protects PTEC/kidney function by inhibiting TNF-α and cisplatin-induced apoptosis in these cells. The immortalized PTEC-derived HK-2 (Human Kidney-2) cells (ATCC number CRL-2190) were grown in serum-free keratinocyte medium (GIBCO number 17005-042) supplemented with epidermal growth factor (EGF: 5 ng/mL) and bovine pituitary extract (40 ug/mL) for 48 hours as described previously (Ryan et al. (1994) Kidney International 45:48-57). Cells were transferred to 24-well plates at a density of 3×10^5 cells per well. After 24 hours, cells were incubated with fresh medium containing TNF-alpha (5 ng/mL) for 20 hours. Controls received medium alone. Then cells were washed twice with fresh culture medium and further incubated with culture medium alone (medium control, and TNF control wells) or TDF-1 at three different concentrations (40, 200 or 1000 ng/mL) or TDFRP compounds at three different concentrations (4, 20 or 100 uM) for sixty hours. During incubation, cells were kept in a 5% CO2 humid atmosphere at 37° C. […] The concentrations of IL-6, IL-8 and sICAM-1 in culture supernatants were measured by specific ELISA (FIG. 14). […]

With “CYFDDSSNVLCKKYRS (disulfide 1-11 (inferred); not fully specified) [SEQ ID NO:45]” the cisplatin-induced apoptosis (HK-2 cells) was “inhibits” and the “TNF-alpha induced inflammatory response (increase in IL-6)” value [1] was “alleviate”.
